These results are taken from patent publication US7067506B2, “Compounds useful for inhibiting Chk1” (ICOS Corporation, priority 2001, dated 2006).

Series [1] concerns human tumor cell lines. The experiment in a line: Enhancement of cell killing by chemotherapeutic drugs (3H-thymidine uptake). It counts as cell-based. The procedure:
To test the hypothesis that inhibition of Chk1 potentiates the killing effect of DNA-damaging agents, cells were incubated in the presence of selective Chk1 inhibitors and either irradiation or chemical DNA-damaging agents. Cells plated at a density of 1000-2000 per well in 96-well microtitre plates were grown in RMPI 1640 containing 10% FBS, 100 U/mL penicillin and 100 μg/mL streptomycin for 18 hours at 37° C. in a humidified incubator with 5% CO2. Cells tested included HeLa, ACHN, 786-0, HCT116, SW620, HT29, Colo205, SK-MEL-5, SK-MEL-28, A549, H322, OVCAR-3, SK-OV-3, MDA-MB-231, MCF-7, PC-3, HL-60, K562, and MOLT4. All cell line designations refer to human cell lines and refer to the following:
Cells were treated with media containing chemotherapeutic drugs alone or chemotherapeutic drugs and Compounds 12 and 29. Cells were incubated for approximately 5 days before growth was measured by determination of levels of ^3H-thymidine uptake. Chemotherapeutic drugs included etoposide, doxorubicin, cisplatin, chlorambucil, 5-fluorouracil (5-FU). The drug concentration necessary to inhibit cell growth to 90% of untreated control cells was defined as the GL90. At concentrations less than 100 μM, Compounds 12 and 29 enhanced the killing of 5-FU from 2- to 10-fold.
Compounds 2 and 12 were tested with additional antimetabolites, including methotrexate, hydroxyurea, 2-chloroadenosine, fludarabine, azacytidine, and gemcitibine for an ability to enhance killing of the agents.

The test system of series [2] is Colo205 and HT29 xenograft tumors. The experiment in a line: Colon tumor xenograft model. Particulars: i.p. 50, 100 or 150 mg/kg; tumor weight by calipers. It counts as in vivo, Balb/c (nu/nu) mice. How it is done:
To test the ability of the Chk1 inhibitors to enhance the killing of tumors by 5-FU in mice, xenograft tumor models using colon tumor cell lines were established. Colo205 and HT29 cells (human colon carcinoma) were used to propagate xenograft tumors in 6-8 week old female […] Balb/c (nu/nu) mice. Mice were maintained in a laminar airflow cabinet under pathogen-free conditions and fed sterile food and water ad libitum. Cell lines were grown to subconfluence in RPMI 1640 media supplemented with 10% FBS, 100 U/mL penicillin, 100 μg/mL streptomycin, and 1.5 mM L-glutamine in a 5% CO2 humidified environment. Single cell suspensions were prepared in CMF-PBS, and cell concentration adjusted to 1×10^8 cells/mL. Mice were inoculated subcutaneously (s.c). on the right flank or right leg with a total of 1×10^7 cells (100 μL).
Mice were randomized (5 mice/group) into four treatment groups and used when tumors reached a weight of 75-100 mg (usually 7-11 days post-inoculation). Tumors were measured with vernier calipers and tumor weights were estimated using the empirically derived formula: tumor weight (mg)=tumor length (mm)×tumor width (mm)^2/3.3. Treatment consisted of i) 100 μL intraperitoneal (i.p). injection of 5-FU at 50 mg/kg, 100 mg/kg, or 150 mg/kg. […] Tumor size was monitored every other day for the duration of the experiment.

Take `COc1cc(NC(=O)CCNC2CCCC2)ccc1NC(=O)Nc1cnccn1` [Compound 2, 3-cyclopentylamino-N-[3-methoxy-4-(3-pyrazin-2-yl-ureido)phenyl]-propionamide]: the “enhancement of killing of cells to 5-azacytidine” value in series [1] (combination with 5-azacytidine) is listed as “enhance the killing of cells”. For the same compound, the “enhancement of killing of cells to fludarabine” value in series [1] (combination with fludarabine) is listed as “enhance the killing of cells”. Further, the “enhancement of killing of cells to hydroxyurea” value in series [1] (combination with hydroxyurea) is “enhance the killing of cells”. For the same compound, in series [1] (combination with methotrexate), the “enhancement of killing of cells to methotrexate” value was “enhance the killing of cells”.

As to `O=c1[nH]cc(F)c(=O)[nH]1` [Compound 5-FU, 5-fluorouracil], in series [2], the tumor growth entry is “dose-dependent delay in tumor growth”.

The compound `COc1cc(CN(C)Cc2ccccc2)ccc1NC(=O)Nc1cnc(C)cn1` [Compound 340, 1-{4-[(Benzyl-methyl-amino)-methyl]-2-methoxy-phenyl}-3-(5-methyl-pyrazin-2-yl)-urea] showed a melting point of 142 to 143 °C.

With `COc1cc(CN)ccc1NC(=O)Nc1cnc(C)cn1` [Compound 342, 1-(4-Aminomethyl-2-methoxy-phenyl)-3-(5-methyl-pyrazin-2-yl)-urea], the melting point was in the range of 168 to 169 °C.
